According to patent US11352338B2, “Substituted isoindolinones” (BioTheryX, Inc., priority 2018, dated 2022):
Where two headings read alike, the source gives them in different places.

How the values were obtained:
PDE6D = molecular target: T1, PDE6D (Homo sapiens, UniProt O43924+Q96SW2); test: Western blot, degradation of cellular PDE6D in MV-4-11 cells; assay type: cell-based; conditions: for Dmax at 1 µM: MV4-11, tested at 1 μM, MV-4-11 cells, 6-8 hours, read-out: % Degradation compared to DMSO, PDE6D
T1 construct: endogenous in cells; host or cells: MV-4-11
T1 sequence (O43924 whole entry): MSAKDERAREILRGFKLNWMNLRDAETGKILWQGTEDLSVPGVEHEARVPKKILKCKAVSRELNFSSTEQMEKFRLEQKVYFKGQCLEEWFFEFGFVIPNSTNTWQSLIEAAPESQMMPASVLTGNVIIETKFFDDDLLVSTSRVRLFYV
T1 sequence (Q96SW2 whole entry): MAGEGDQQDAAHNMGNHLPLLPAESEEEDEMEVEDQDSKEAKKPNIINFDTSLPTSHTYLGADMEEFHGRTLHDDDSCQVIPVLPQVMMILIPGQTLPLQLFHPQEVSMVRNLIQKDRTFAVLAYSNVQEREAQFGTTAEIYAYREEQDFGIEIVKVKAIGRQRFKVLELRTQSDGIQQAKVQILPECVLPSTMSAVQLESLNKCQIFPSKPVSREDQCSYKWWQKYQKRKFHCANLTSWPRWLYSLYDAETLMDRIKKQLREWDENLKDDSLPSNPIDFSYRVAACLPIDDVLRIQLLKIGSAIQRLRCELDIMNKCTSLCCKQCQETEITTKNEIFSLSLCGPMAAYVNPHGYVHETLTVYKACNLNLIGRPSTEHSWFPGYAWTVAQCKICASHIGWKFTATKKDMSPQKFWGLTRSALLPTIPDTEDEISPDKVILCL
T1 sequence (Q16531 whole entry partner): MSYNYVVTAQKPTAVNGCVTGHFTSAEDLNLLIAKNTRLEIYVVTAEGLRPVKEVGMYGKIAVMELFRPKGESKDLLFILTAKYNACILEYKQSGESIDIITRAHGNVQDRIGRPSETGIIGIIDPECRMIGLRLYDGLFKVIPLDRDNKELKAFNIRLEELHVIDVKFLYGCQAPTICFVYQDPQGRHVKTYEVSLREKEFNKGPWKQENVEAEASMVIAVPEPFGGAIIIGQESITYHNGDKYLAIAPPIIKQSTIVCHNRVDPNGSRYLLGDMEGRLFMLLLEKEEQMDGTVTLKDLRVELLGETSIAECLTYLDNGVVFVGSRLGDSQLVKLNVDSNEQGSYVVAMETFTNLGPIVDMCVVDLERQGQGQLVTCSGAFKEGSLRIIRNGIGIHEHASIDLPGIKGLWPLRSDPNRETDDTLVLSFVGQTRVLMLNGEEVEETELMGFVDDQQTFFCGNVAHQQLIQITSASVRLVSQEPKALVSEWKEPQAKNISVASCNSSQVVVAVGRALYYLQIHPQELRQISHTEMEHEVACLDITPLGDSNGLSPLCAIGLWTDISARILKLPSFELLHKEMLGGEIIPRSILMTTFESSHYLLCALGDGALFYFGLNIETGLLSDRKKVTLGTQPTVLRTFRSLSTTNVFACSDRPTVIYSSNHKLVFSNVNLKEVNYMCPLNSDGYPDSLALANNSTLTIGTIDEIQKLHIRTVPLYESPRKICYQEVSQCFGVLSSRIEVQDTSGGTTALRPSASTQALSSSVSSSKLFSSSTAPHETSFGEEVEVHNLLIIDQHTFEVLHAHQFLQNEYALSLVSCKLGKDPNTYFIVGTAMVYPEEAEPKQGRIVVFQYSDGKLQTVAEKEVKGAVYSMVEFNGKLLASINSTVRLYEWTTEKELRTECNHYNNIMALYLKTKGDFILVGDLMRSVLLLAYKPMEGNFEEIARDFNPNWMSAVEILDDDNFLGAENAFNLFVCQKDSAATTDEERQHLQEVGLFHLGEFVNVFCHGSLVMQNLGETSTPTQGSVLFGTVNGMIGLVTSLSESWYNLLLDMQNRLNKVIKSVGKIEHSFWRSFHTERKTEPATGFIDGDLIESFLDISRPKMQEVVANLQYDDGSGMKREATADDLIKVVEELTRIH
Experimental: (§1) MV-4-11 cells were grown in RPMI 1640 media supplemented with 10% fetal bovine serum, streptomycin and penicillin.
(§2) Cells were cultured at approximately 10^6 cells per mL and incubated in DMSO or the indicated compounds for 6-8 hours. Whole cell extracts were prepared using RIPA lysis buffer according to manufacturer's protocol (Pierce). Briefly, 4×10^6 cells were washed once in PBS, the cell pellets were resuspended in RIPA lysis buffer and allowed to incubate for 15 minutes on ice. Cells debris was removed by centrifugation and the cleared whole cell lysates were transferred to new tubes for further analysis.
(§3) For Western blot analysis, whole cell protein extracts were separated on 4-12% SDS-polyacrylamide gels, transferred to nitrocellulose and probed with the indicated primary antibodies. Membranes were subsequently washed and probed with the appropriate IRDye secondary antibodies (LI-COR). The signal was detected using the Odyssey Imaging System (LI-COR).
(§4) The following antibodies were used in these studies: Anti-PDE6D antibody: Santa Cruz Biotechnology, sc-166854 (Dallas, Tex.); Anti-Ikaros: Abcam, ab191394 (Cambridge, Mass.); anti-CK1α antibody: Abcam, ab108296 (Cambridge, Mass.); β-Actin (8H10D10) mouse monoclonal antibody: Cell Signaling Technology, #3700 (Danvers, Mass.); IRDye 680RD Goat anti-rabbit antibody: LI-COR, 926-68071 (Lincoln, Nebr.); and IRDye 800CW Goat anti-mouse antibody: LI-COR, 926-32210 (Lincoln, Nebr.).
(§5) The % degradation values are reported as “A”, “B”, “C”, or “D.” “A” represents a % degradation value of less than 25% (value<25%); “B” represents a % degradation value of equal to or more than 25% and less than 50% (25%≤value<50%); “C” represents a % degradation value of equal to or more than 50% and less than 75% (50%≤value<75%); and “D” represents a % degradation value of equal to or more than 75% (value≥75%). […] was used as control.

CK1α = molecular target: T2, CK1α (Homo sapiens, UniProt P48729+Q96SW2); test: Western blot, degradation of cellular CK1α in MV-4-11 cells; assay type: cell-based; conditions: MV4-11, tested at 1 μM, 6-8 hours, read-out: % Degradation compared to DMSO, CK1α
T2 construct: endogenous in cells; host or cells: MV-4-11
T2 sequence (P48729 whole entry): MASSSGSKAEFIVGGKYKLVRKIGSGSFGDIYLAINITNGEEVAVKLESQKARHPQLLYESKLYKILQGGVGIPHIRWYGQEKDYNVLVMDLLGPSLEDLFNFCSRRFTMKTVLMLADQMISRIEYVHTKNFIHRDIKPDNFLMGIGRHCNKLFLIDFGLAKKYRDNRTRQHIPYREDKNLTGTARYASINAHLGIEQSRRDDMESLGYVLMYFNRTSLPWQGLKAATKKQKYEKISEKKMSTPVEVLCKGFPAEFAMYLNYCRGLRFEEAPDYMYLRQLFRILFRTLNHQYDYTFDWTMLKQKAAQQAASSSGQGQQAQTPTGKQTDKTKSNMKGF
T2 sequence (Q96SW2 whole entry): as the sequence (Q96SW2 whole entry) above
T2 sequence (Q16531 whole entry partner): as the sequence (Q16531 whole entry partner) above
Experimental: as §1, §2, §3, §4, §5

Ikaros = molecular target: T3, Ikaros (Homo sapiens, UniProt Q13422+Q96SW2); test: Western blot, degradation of cellular Ikaros in MV-4-11 cells; assay type: cell-based; conditions: MV4-11, tested at 1 μM, 6-8 hours, read-out: % Degradation compared to DMSO, Ikaros
T3 construct: endogenous in cells; host or cells: MV-4-11
T3 sequence (Q13422 whole entry): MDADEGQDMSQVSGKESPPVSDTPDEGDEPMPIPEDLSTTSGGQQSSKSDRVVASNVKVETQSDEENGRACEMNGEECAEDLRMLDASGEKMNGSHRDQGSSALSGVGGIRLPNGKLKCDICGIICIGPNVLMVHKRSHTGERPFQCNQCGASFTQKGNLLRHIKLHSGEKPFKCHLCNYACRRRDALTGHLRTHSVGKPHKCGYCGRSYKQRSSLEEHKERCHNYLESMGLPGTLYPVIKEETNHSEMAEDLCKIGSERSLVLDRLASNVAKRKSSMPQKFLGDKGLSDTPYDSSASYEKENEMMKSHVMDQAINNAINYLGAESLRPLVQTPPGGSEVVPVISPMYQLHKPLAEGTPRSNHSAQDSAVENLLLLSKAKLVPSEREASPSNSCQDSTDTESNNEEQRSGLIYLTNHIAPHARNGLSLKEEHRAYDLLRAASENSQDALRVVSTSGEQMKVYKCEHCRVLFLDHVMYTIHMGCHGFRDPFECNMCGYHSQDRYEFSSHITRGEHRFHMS
T3 sequence (Q96SW2 whole entry): as the sequence (Q96SW2 whole entry) above
T3 sequence (Q16531 whole entry partner): as the sequence (Q16531 whole entry partner) above
Experimental: as §1, §2, §3, §4, §5

IL-1β = IL-1β inhibition, LPS-induced PBMCs or CD14+ monocytes, Meso Scale assay; assay type: cell-based; conditions: LPS 100 ng/mL 18-24 h, read-out: % Inhibition compared to DMSO, IL-1β; for inhibition at 1 µM: tested at 1 μM; for inhibition at 10 µM: tested at 10 μM
Experimental: (§6) Either frozen primary blood mononuclear cells (PBMCs) or frozen CD14+ mobilized peripheral blood monocytes were purchased from AllCells (PB003F, Normal Peripheral Blood MNC (Alameda, Calif.)). Cells were quick thawed, washed 1-time with RPMI-1640 (10% FBS/1% Pen-Strep) and plated in 96 well plates at 200,000 cells per well. Cells were pretreated with DMSO only or with the indicated compound for 1 h and then induced with 100 ng/mL lipopolysaccharide (LPS) for 18-24 h. The supernatant was analyzed for IL-1β, IL-6, and TNFα, using Meso Scale assay according to manufacturer's protocol. The negative control wells were treated with DMSO.
(§7) IL-1β, IL-6 and TNFα activities were tested at two different concentrations (1 μM and 10 μM) and the results are shown in Tables 2 and 3 respectively.

IL-6 = IL-6 inhibition, LPS-induced PBMCs or CD14+ monocytes, Meso Scale assay; assay type: cell-based; conditions: LPS 100 ng/mL 18-24 h, read-out: % Inhibition compared to DMSO, IL-6; for inhibition at 1 µM: tested at 1 μM; for inhibition at 10 µM: tested at 10 μM
Experimental: as §6, §7

TNFα = TNFα inhibition, LPS-induced PBMCs or CD14+ monocytes, Meso Scale assay; assay type: cell-based; conditions: LPS 100 ng/mL 18-24 h, read-out: % Inhibition compared to DMSO, TNFα; for inhibition at 1 µM: tested at 1 μM; for inhibition at 10 µM: tested at 10 μM
Experimental: as §6, §7

IL-2 = IL-2 inhibition assay, anti-CD3 (OKT3) stimulated PBMCs, Mesoscale IL-2 analysis; assay type: cell-based, human; conditions: for fold induction at 1 µM / fold induction at 10 µM: Homo sapiens, PBMC, read-out: IL-2, % Induction compared to DMSO
Experimental: For the IL-2 analysis, 96 well plates were precoated with 1 μg/mL anti-human CD3 antibody (OKT3, eBioscience Inc., San Diego, Calif.). After washing with PBS, the indicated compound was added (50 μL/well) followed by PBMCs diluted at 3-4 million cells/mL (150 μL/well). Plates were incubated for 24 h and the supernatants collected for Mesoscale IL-2 analysis. IL-2 activity is measured as fold difference from the DMSO control. […]
In Table 4, the fold-change values are reported as “A”, “B”, “C”, or “D”. “A” represents a fold-change value of equal to or less than 0.5 (value≤0.5); “B” represents a fold-change value of more than 0.5 and equal to or less than 1 (0.5<value≤1); “C” represents a fold-change value of more than 1 and less than 1.5 (1<value<1.5); and “D” represents a fold-change value of equal to or more than 1.5 (value≥1.5).

[1] = PBMCs on anti-CD3, 24 h, fold difference from DMSO control
[2] = 10 μM, PBMCs on anti-CD3, 24 h, fold difference from DMSO control

SMILES	Dmax at 1 µM (PDE6D) [%]	Dmax at 1 µM (CK1α) [%]	Dmax at 1 µM (Ikaros) [%]	inhibition at 1 µM (IL-1β) [%]	inhibition at 10 µM (IL-1β) [%]	inhibition at 1 µM (IL-6) [%]	inhibition at 10 µM (IL-6) [%]	inhibition at 1 µM (TNFα) [%]	inhibition at 10 µM (TNFα) [%]	fold induction at 1 µM (IL-2; [1])	fold induction at 10 µM (IL-2; [2])	PDE6D degradation activity (in words) (PDE6D; 1 μM)	% Degradation of PDE6D (PDE6D; 1 μM, comparison with comparative compound A)	effect on IL-2 (in words) (IL-2; 10 μM)	fold induction at 10 µM (IL-2; 24 h, 10 μM, comparison with comparative compound B)
CC1(C)CC=C(c2cc(F)cc3c2CN(C2CCC(=O)NC2=O)C3=O)CC1 (centres unmarked) [Compound 8]	< 25	< 25	< 25	< 10	< 10	10 to 25	10 to 25	10 to 25	25 to 50	0.5 to 1	0.5 to 1	–	–	–	–
O=C1CCC(N2Cc3c(cc(F)cc3C3=CCC(F)(F)CC3)C2=O)C(=O)N1 (centres unmarked) [Compound 9]	≥ 75	< 25	< 25	< 10	< 10	10 to 25	10 to 25	< 10	25 to 50	0.5 to 1	0.5 to 1	–	–	–	–
O=C1CCC(N2C(=O)c3cccc(C4CCCC4)c3C2=O)C(=O)N1 (centres unmarked) [Compound 10, 4-cyclopentyl-2-(2,6-dioxopiperidin-3-yl)isoindoline-1,3-dione]	50 to 75	< 25	25 to 50	< 10	10 to 25	< 10	10 to 25	10 to 25	> 50	1 to 1.5	0.5 to 1	–	–	–	–
O=C1CCC(N2Cc3c(cc(F)cc3C(F)F)C2=O)C(=O)N1 (centres unmarked) [Compound 17, 3-(4-(Difluoromethyl)-6-fluoro-1-oxoisoindolin-2-yl) piperidine-2,6-dione]	50 to 75	–	≥ 75	< 10	10 to 25	< 10	< 10	25 to 50	25 to 50	0.5 to 1	0.5 to 1	–	–	–	–
O=C1CCC(N2Cc3c(cc(F)cc3C3CCOCC3)C2=O)C(=O)N1 (centres unmarked) [Compound 32]	≥ 75	25 to 50	< 25	< 10	–	< 10	–	< 10	–	–	–	–	–	–	–
Cc1cccc2c1CN(C1CCCC(=O)NC1=O)C2=O (centres unmarked) [Compound A, reference compound]	–	–	–	–	–	–	–	–	–	–	–	did not demonstrate any measurable PDE6D degradation activity	A (a % degradation value of less than 25% (value<25%))	–	–
Cc1cccc2c1CN(C1CCC(=O)NC1=O)C2=O (centres unmarked) [Compound B, reference compound]	–	–	–	–	–	–	–	–	–	–	–	–	–	induced IL-2 (upregulation)	≥ 1.5
